Where no end group is shown, it is not given here.
System: HLA Class I molecules
Assay: HLA class I binding stability assay (pMHC-I complex dissociation, 125I-labeled β2m, scintillation counts)
Set-up: species or system human
[1] = allele A02.01, pMHC-I dissociation at 37° C.

Compound	Stability (T1/2 (h)) [1]	Stability (T1/2 (h)) (allele A02.01, 37° C.)	also measured
CC[C@H](C)[C@H](NC(=O)[C@H](CC(C)C)NC(=O)[C@@H]1CCCN1C(=O)[C@H](Cc1ccccc1)NC(=O)[C@H](CC(C)C)NC(=O)[C@@H](N)CCC(=O)O)C(=O)N[C@@H](Cc1ccccc1)C(=O)N1CCC[C@H]1C(=O)N[C@@H](C)C(=O)O	5.1 h		
CC(C)C[C@H](NC(=O)[C@H](CO)NC(=O)[C@H](CS)NC(=O)[C@H](CCC(=O)O)NC(=O)[C@H](Cc1c[nH]c2ccccc12)NC(=O)[C@H](CC(C)C)NC(=O)[C@H](C)NC(=O)[C@H](CC(C)C)NC(=O)[C@H](CC(C)C)NC(=O)[C@@H](N)Cc1ccccc1)C(=O)O		10.8 h	
CC(C)C[C@H](NC(=O)[C@@H](N)Cc1ccccc1)C(=O)N[C@@H](CCC(N)=O)C(=O)N[C@@H](CCC(=O)O)C(=O)N[C@@H](CCC(N)=O)C(=O)N[C@@H](Cc1ccc(O)cc1)C(=O)N[C@@H](Cc1c[nH]cn1)C(=O)N[C@@H](CCC(=O)O)C(=O)N[C@@H](C)C(=O)O		9.5 h	
CSCC[C@H](NC(=O)[C@H](CC(C)C)NC(=O)[C@H](CO)NC(=O)[C@H](CC(C)C)NC(=O)[C@@H]1CCCN1C(=O)[C@H](CCC(N)=O)NC(=O)[C@H](CCSC)NC(=O)[C@H](CCC(N)=O)NC(=O)[C@@H](N)Cc1ccccc1)C(=O)O		0.3 h	
C[C@H](NC(=O)[C@H](CO)NC(=O)[C@H](C)NC(=O)[C@@H]1CCCN1C(=O)[C@H](C)NC(=O)[C@@H]1CCCN1C(=O)[C@H](CCCNC(=N)N)NC(=O)[C@@H]1CCCN1C(=O)[C@@H](N)Cc1c[nH]cn1)C(=O)O			Stability (T1/2 (h)) (allele B07.02, 37° C.): 4.9 h
CC[C@H](C)[C@H](N)C(=O)N[C@@H](CCSC)C(=O)N[C@@H](CCC(N)=O)C(=O)N[C@@H](CC(C)C)C(=O)N[C@@H](CCSC)C(=O)N1CCC[C@H]1C(=O)N[C@@H](Cc1ccccc1)C(=O)NCC(=O)N[C@@H](CS)C(=O)N[C@@H](CC(C)C)C(=O)O	0.5 h		
CC[C@H](C)[C@H](N)C(=O)N[C@@H](CCC(N)=O)C(=O)N[C@@H](CC(C)C)C(=O)N[C@@H](CCC(N)=O)C(=O)N[C@@H](CC(=O)O)C(=O)N[C@@H](CCCCN)C(=O)N[C@@H](Cc1ccccc1)C(=O)N[C@@H](CCC(=O)O)C(=O)N[C@@H](Cc1c[nH]cn1)C(=O)N[C@@H](CC(C)C)C(=O)O	0.2 h		
CSCC[C@H](NC(=O)[C@H](CC(C)C)NC(=O)[C@@H](N)CCCCN)C(=O)N[C@@H](CC(C)C)C(=O)N[C@@H](CC(C)C)C(=O)N[C@@H](CCCNC(=N)N)C(=O)N[C@@H](CC(C)C)C(=O)N[C@@H](CC(N)=O)C(=O)N[C@@H](CC(C)C)C(=O)O		16.9 h	Stability (T1/2 (h)) (allele B07.02, 37° C.): 1.5 h
CC(C)C[C@H](NC(=O)[C@H](CO)NC(=O)[C@H](CS)NC(=O)[C@H](CCC(=O)O)NC(=O)[C@H](Cc1c[nH]c2ccccc12)NC(=O)[C@H](CC(C)C)NC(=O)[C@H](C)NC(=O)[C@H](CC(C)C)NC(=O)[C@@H](N)CC(C)C)C(=O)O		4 h	
CC[C@H](C)[C@H](NC(=O)[C@H](Cc1ccc(O)cc1)NC(=O)[C@H](CC(C)C)NC(=O)[C@@H](N)CC(C)C)C(=O)N[C@H](C(=O)N[C@@H](C)C(=O)N[C@@H](Cc1ccccc1)C(=O)N[C@@H](Cc1ccccc1)C(=O)N[C@@H](CC(C)C)C(=O)O)[C@@H](C)O		17 h	
CC(C)C[C@H](N)C(=O)N1CCC[C@H]1C(=O)N[C@@H](CCCNC(=N)N)C(=O)N[C@@H](CCCCN)C(=O)N1CCC[C@H]1C(=O)N[C@H](C(=O)N[C@@H](CCCNC(=N)N)C(=O)N[C@@H](C)C(=O)N[C@@H](C)C(=O)O)[C@@H](C)O			Stability (T1/2 (h)) (allele B07.02, 37° C.): 5.5 h
CSCC[C@H](NC(=O)[C@H](Cc1c[nH]c2ccccc12)NC(=O)[C@H](Cc1c[nH]cn1)NC(=O)[C@H](CC(N)=O)NC(=O)[C@H](CCCNC(=N)N)NC(=O)[C@H](CCCNC(=N)N)NC(=O)[C@H](CCC(N)=O)NC(=O)[C@H](CO)NC(=O)[C@@H]1CCCN1C(=O)[C@@H](N)CC(C)C)C(=O)O			Stability (T1/2 (h)) (allele B07.02, 37° C.): 6.5 h; Stability (T1/2 (h)) (allele B08.01, 37° C.): 0.7 h
CC[C@H](C)[C@H](NC(=O)[C@H](CO)NC(=O)[C@H](Cc1c[nH]c2ccccc12)NC(=O)[C@H](Cc1c[nH]cn1)NC(=O)[C@H](C)NC(=O)[C@@H]1CCCN1C(=O)[C@H](CCSC)NC(=O)[C@H](CC(C)C)NC(=O)[C@H](CO)NC(=O)[C@@H](N)CC(C)C)C(=O)O		0.4 h	
CC(C)C[C@H](N)C(=O)N[C@H](C(=O)N[C@H](C(=O)N[C@H](C(=O)NCC(=O)N[C@@H](C)C(=O)N[C@H](C(=O)NCC(=O)N[C@H](C(=O)O)C(C)C)C(C)C)C(C)C)C(C)C)C(C)C		0.6 h	
CC[C@H](C)[C@H](NC(=O)[C@@H]1CCCN1C(=O)[C@H](CC(C)C)NC(=O)[C@H](Cc1ccccc1)NC(=O)[C@H](CC(C)C)NC(=O)[C@H](CO)NC(=O)[C@H](CC(=O)O)NC(=O)[C@@H](NC(=O)[C@H](CC(C)C)NC(=O)[C@@H](N)CCSC)[C@@H](C)O)C(=O)O		1 h	
CSCC[C@H](NC(=O)[C@H](CC(C)C)NC(=O)[C@H](CCC(N)=O)NC(=O)[C@@H](N)CCSC)C(=O)N1CCC[C@H]1C(=O)N[C@@H](Cc1ccccc1)C(=O)NCC(=O)N[C@@H](CS)C(=O)N[C@@H](CC(C)C)C(=O)O	0.4 h		
CSCC[C@H](NC(=O)[C@H](CC(C)C)NC(=O)[C@H](CCC(N)=O)NC(=O)[C@@H](N)CCSC)C(=O)N1CCC[C@H]1C(=O)N[C@@H](Cc1ccccc1)C(=O)NCC(=O)N[C@@H](CS)C(=O)N[C@@H](CC(C)C)C(=O)N[C@@H](CC(C)C)C(=O)O	0.4 h		
CC[C@H](C)[C@H](NC(=O)[C@H](CC(C)C)NC(=O)[C@@H](N)CCC(N)=O)C(=O)N[C@@H](CCSC)C(=O)N[C@@H](CCC(N)=O)C(=O)N[C@@H](CC(C)C)C(=O)N[C@@H](CCSC)C(=O)N1CCC[C@H]1C(=O)N[C@@H](Cc1ccccc1)C(=O)O	0.3 h		

Compound	Stability (T1/2 (h)) [1]	Stability (T1/2 (h)) (allele A02.01, 37° C.)	also measured
CC(C)C[C@H](NC(=O)[C@H](Cc1c[nH]cn1)NC(=O)[C@H](CCC(=O)O)NC(=O)[C@H](Cc1ccccc1)NC(=O)[C@H](CCCCN)NC(=O)[C@H](CC(=O)O)NC(=O)[C@H](CCC(N)=O)NC(=O)[C@H](CC(C)C)NC(=O)[C@@H](N)CCC(N)=O)C(=O)O	0.6 h		
CC(C)C[C@H](NC(=O)[C@H](CO)NC(=O)[C@H](CC(N)=O)NC(=O)[C@H](CS)NC(=O)[C@H](CCC(=O)O)NC(=O)[C@H](Cc1c[nH]cn1)NC(=O)[C@H](CC(C)C)NC(=O)[C@@H](NC(=O)[C@@H](N)CCC(N)=O)C(C)C)C(=O)O		0.5 h	
CC(C)C[C@H](NC(=O)[C@@H]1CCCN1C(=O)[C@H](CS)NC(=O)[C@H](CC(C)C)NC(=O)[C@H](Cc1c[nH]cn1)NC(=O)[C@H](CC(N)=O)NC(=O)CNC(=O)[C@H](CC(C)C)NC(=O)[C@@H](N)CO)C(=O)O		3.5 h	Stability (T1/2 (h)) (allele B08.01, 37° C.): 0.5 h
CSCC[C@H](NC(=O)[C@H](CCC(=O)O)NC(=O)[C@H](CCCNC(=N)N)NC(=O)[C@H](CC(C)C)NC(=O)[C@H](Cc1ccc(O)cc1)NC(=O)[C@H](CC(N)=O)NC(=O)[C@H](CC(C)C)NC(=O)[C@H](CC(C)C)NC(=O)[C@@H](N)CO)C(=O)O	3 h		
CC[C@H](C)[C@H](NC(=O)[C@H](CO)NC(=O)[C@H](Cc1c[nH]c2ccccc12)NC(=O)[C@H](Cc1c[nH]cn1)NC(=O)[C@H](C)NC(=O)[C@@H]1CCCN1C(=O)[C@H](CCSC)NC(=O)[C@H](CC(C)C)NC(=O)[C@@H](N)CO)C(=O)O		5 h	
CC[C@H](C)[C@H](NC(=O)[C@H](Cc1ccccc1)NC(=O)[C@H](CCCNC(=N)N)NC(=O)[C@@H]1CCCN1C(=O)[C@H](CC(C)C)NC(=O)[C@@H](N)CO)C(=O)N[C@@H](CC(C)C)C(=O)N[C@@H](CCSC)C(=O)N[C@@H](CCC(=O)O)C(=O)N[C@@H](CC(C)C)C(=O)O	0.5 h		Stability (T1/2 (h)) (allele B07.02, pMHC-I dissociation at 37° C.): 0.4 h
CC[C@H](C)[C@H](NC(=O)[C@H](CCC(N)=O)NC(=O)[C@@H](N)CO)C(=O)N[C@@H](CCSC)C(=O)N[C@@H](CO)C(=O)N[C@@H](CC(C)C)C(=O)N[C@@H](Cc1c[nH]c2ccccc12)C(=O)NCC(=O)N[C@@H](CC(C)C)C(=O)O		1 h	
CC(C)[C@H](NC(=O)[C@H](CO)NC(=O)[C@H](Cc1ccccc1)NC(=O)[C@H](Cc1ccccc1)NC(=O)[C@H](Cc1ccccc1)NC(=O)[C@H](Cc1ccccc1)NC(=O)[C@H](CS)NC(=O)[C@@H](NC(=O)[C@@H](N)CO)C(C)C)C(=O)O	9.4 h		
CC[C@H](C)[C@H](NC(=O)[C@H](CCCCN)NC(=O)[C@H](CO)NC(=O)[C@H](CCC(=O)O)NC(=O)[C@H](C)NC(=O)[C@H](CCCCN)NC(=O)[C@H](CC(C)C)NC(=O)[C@H](Cc1ccccc1)NC(=O)[C@H](CCSC)NC(=O)[C@@H](N)Cc1ccc(O)cc1)C(=O)O		0.6 h	Stability (T1/2 (h)) (allele B08.01, 37° C.): 0.4 h
CSCC[C@H](NC(=O)[C@@H](NC(=O)[C@H](Cc1ccc(O)cc1)NC(=O)[C@H](C)NC(=O)[C@H](CCSC)NC(=O)[C@@H](NC(=O)[C@@H](N)Cc1ccc(O)cc1)C(C)C)C(C)C)C(=O)N[C@@H](C)C(=O)NCC(=O)O		2.5 h	Stability (T1/2 (h)) (allele B08.01, 37° C.): 1.2 h
CSCC[C@H](NC(=O)[C@@H](NC(=O)[C@H](Cc1ccc(O)cc1)NC(=O)[C@H](C)NC(=O)[C@H](CCSC)NC(=O)[C@@H](NC(=O)[C@@H](N)Cc1ccc(O)cc1)C(C)C)C(C)C)C(=O)N[C@@H](C)C(=O)NCC(=O)N[C@H](C(=O)O)C(C)C		20.9 h	
CC(C)C[C@H](NC(=O)[C@H](C)NC(=O)[C@@H](NC(=O)[C@H](CCCNC(=N)N)NC(=O)[C@H](CO)NC(=O)[C@H](CC(=O)O)NC(=O)[C@H](CO)NC(=O)[C@H](CC(C)C)NC(=O)[C@@H](N)CCCCN)[C@@H](C)O)C(=O)O [KLSDSRTAL]		2.8 h	Stability (T1/2 (h)) (allele B07.02, 37° C.): 6.8 h
IIIEYCFYG		1.2 h	
KPTRAATVSV			Stability (T1/2 (h)) (allele B07.02, 37° C.): 3 h
KVLQMDFLV	6.4 h		
KVSRENTSPK			Stability (T1/2 (h)) (allele A03.01, 37° C.): 13.5 h
LPRKPTRAAT			Stability (T1/2 (h)) (allele B07.02, 37° C.): 3.7 h
MNWRPILTI		3.8 h	
